Test results as given in ChEMBL document CHEMBL1142912, “Novel piperazines: potent melanocortin-4 receptor antagonists with anxiolytic-like activity” (Bioorg Med Chem, 2007).
The source made the active and inactive calls. No cut-off for these calls is given here.

How the values were obtained:
[1] = biological target: Melanocortin receptor 4 (Homo sapiens, UniProt P32245); test: Displacement of [125I][Nle4,D-Phe7]alphaMSH from human MC4R expressed in COS7 cells; type: cell-based, COS-7
[2] = biological target: Norepinephrine transporter (Rattus norvegicus, UniProt Q9WTR4); test: Displacement of [3H]nisoxetine from NET in rat cortical membrane; type: cell membranes
[3] = biological target: Sodium-dependent serotonin transporter (Rattus norvegicus, UniProt P31652); test: Displacement of [3H]paroxetine from serotonin transporter in rat cortical membrane; type: cell membranes
[4] = biological target: T1, Adrenergic receptor alpha-1 (Rattus norvegicus, UniProt P15823+P23944+P43140); test: Displacement of [3H]prazosin from Adrenergic alpha-1 receptor in rat cortical membrane; type: cell membranes
T1 sequence (P15823 whole entry): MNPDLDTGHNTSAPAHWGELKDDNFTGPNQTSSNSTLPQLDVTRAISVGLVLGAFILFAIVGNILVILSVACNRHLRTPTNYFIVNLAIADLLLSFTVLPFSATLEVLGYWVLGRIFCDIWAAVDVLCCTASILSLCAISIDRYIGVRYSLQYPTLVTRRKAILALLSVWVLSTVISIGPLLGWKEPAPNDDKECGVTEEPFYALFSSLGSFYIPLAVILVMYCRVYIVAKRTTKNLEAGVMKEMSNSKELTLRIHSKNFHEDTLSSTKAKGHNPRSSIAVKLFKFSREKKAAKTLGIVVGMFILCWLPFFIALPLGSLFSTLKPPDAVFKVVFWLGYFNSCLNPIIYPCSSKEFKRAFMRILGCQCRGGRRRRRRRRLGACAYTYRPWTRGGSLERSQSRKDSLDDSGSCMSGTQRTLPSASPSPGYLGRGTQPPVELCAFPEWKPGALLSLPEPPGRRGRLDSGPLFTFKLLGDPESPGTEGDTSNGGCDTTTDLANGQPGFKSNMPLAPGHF
T1 sequence (P23944 whole entry): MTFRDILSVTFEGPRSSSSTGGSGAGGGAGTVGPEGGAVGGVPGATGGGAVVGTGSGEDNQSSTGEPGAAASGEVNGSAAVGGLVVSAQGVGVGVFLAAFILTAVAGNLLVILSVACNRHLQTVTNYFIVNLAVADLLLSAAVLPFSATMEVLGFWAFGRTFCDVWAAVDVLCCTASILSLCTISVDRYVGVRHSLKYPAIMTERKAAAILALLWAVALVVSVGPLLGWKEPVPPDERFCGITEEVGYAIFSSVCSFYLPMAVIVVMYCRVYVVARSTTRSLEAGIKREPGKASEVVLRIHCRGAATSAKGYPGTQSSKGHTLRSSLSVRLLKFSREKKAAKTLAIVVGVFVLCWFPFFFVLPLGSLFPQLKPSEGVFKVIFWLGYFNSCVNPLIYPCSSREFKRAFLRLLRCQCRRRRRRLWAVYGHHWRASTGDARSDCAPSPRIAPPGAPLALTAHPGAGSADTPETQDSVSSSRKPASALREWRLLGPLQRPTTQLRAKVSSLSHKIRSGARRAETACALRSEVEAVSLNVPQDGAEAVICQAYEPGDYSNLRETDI
T1 sequence (P43140 whole entry): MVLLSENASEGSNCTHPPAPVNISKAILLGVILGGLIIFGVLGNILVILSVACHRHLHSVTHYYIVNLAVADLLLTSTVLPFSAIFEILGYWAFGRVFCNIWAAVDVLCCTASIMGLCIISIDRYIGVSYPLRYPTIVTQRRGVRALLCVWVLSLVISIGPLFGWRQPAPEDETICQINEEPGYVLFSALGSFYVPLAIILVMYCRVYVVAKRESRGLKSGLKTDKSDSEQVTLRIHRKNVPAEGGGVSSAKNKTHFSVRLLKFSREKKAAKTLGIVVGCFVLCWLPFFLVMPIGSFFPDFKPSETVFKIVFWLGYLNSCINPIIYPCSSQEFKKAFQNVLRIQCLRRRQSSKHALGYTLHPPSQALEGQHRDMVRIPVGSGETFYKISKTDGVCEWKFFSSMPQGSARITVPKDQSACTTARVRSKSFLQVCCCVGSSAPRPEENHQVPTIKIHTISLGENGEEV

[5] = biological target: Histamine H1 receptor (Rattus norvegicus, UniProt P31390); test: Displacement of [3H]pyrilamine from histamine H1 receptor in rat brain membrane; type: cell membranes
[6] = biological target: D(2) dopamine receptor (Rattus norvegicus, UniProt P61169); test: Displacement of [3H]raclopride from dopamine receptor D2 in rat striatal membrane; type: cell membranes, Striatum
[7] = biological target: Mu-type opioid receptor (Rattus norvegicus, UniProt P33535); test: Displacement of [3H]DAMGO from mu opioid receptor in rat brain membrane; type: cell membranes
[8] = biological target: Delta-type opioid receptor (Rattus norvegicus, UniProt P33533); test: Displacement of [3H]DPDPE from delta opioid receptor in rat brain membrane; type: cell membranes
[9] = test system: Rattus norvegicus; test: Reversal of stress-induced anxiety-like behavior in Sprague-Dawley rat at 1 mg/kg, po; type: functional, organism-based; set-up: dose 1 mg/kg

Melanocortin receptor 4, sequence (P32245 whole entry): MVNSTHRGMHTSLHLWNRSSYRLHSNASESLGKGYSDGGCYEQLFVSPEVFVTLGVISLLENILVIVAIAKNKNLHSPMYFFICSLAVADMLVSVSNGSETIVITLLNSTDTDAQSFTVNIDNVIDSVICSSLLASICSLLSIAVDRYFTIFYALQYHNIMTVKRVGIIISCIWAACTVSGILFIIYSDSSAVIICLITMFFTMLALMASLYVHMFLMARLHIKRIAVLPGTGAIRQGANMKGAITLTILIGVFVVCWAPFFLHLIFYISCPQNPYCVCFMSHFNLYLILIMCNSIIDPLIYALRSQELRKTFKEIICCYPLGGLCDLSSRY
Mu-type opioid receptor, sequence (P33535 whole entry): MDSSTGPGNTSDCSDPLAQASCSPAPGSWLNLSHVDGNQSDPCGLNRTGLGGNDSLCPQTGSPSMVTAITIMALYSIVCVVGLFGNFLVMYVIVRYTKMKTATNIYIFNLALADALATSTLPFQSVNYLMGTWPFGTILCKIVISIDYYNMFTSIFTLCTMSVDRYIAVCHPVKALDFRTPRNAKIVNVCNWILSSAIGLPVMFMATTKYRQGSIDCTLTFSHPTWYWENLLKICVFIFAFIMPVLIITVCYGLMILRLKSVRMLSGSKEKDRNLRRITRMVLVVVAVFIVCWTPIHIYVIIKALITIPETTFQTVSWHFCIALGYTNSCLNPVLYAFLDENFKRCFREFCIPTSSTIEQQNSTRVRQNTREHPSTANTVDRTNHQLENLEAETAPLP
D(2) dopamine receptor, sequence (P61169 whole entry): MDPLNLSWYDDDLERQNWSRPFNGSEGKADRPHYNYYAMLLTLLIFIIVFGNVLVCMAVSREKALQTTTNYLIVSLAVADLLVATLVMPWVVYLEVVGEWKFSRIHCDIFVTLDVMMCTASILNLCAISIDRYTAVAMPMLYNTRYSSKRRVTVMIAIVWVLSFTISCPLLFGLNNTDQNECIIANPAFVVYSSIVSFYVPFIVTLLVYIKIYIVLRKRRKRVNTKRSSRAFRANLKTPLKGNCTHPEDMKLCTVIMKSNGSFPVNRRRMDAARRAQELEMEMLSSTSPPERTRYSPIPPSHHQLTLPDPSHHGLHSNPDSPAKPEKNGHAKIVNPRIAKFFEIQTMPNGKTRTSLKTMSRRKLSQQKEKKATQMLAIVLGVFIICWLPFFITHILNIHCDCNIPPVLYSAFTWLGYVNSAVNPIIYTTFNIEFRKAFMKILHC
Sodium-dependent serotonin transporter, sequence (P31652 whole entry): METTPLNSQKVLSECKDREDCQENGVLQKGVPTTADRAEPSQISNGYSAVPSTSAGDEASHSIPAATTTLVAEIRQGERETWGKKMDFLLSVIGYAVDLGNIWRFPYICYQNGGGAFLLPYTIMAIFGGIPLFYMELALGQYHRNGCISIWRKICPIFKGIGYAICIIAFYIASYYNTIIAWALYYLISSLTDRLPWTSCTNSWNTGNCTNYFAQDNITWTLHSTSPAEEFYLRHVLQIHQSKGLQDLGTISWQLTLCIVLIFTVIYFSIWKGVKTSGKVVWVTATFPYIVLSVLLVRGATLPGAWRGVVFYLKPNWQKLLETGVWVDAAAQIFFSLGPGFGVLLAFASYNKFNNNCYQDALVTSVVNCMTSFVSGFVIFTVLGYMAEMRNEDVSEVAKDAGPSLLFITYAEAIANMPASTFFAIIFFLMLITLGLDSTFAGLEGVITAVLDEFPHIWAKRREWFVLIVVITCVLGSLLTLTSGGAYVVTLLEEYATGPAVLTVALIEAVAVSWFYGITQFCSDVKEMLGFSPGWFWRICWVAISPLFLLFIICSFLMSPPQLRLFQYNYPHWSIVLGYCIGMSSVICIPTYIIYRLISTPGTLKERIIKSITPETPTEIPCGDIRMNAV
Delta-type opioid receptor, sequence (P33533 whole entry): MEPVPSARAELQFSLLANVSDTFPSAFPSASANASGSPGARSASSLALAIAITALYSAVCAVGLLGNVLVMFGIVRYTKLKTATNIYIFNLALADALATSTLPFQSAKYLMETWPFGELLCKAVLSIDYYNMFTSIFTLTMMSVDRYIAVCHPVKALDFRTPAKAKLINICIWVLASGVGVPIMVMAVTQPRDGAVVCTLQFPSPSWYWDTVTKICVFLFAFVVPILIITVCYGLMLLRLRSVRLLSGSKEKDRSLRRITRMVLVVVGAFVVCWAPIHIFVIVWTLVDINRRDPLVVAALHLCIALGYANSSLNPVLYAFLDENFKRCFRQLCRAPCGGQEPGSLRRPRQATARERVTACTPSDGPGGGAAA
Histamine H1 receptor, sequence (P31390 whole entry): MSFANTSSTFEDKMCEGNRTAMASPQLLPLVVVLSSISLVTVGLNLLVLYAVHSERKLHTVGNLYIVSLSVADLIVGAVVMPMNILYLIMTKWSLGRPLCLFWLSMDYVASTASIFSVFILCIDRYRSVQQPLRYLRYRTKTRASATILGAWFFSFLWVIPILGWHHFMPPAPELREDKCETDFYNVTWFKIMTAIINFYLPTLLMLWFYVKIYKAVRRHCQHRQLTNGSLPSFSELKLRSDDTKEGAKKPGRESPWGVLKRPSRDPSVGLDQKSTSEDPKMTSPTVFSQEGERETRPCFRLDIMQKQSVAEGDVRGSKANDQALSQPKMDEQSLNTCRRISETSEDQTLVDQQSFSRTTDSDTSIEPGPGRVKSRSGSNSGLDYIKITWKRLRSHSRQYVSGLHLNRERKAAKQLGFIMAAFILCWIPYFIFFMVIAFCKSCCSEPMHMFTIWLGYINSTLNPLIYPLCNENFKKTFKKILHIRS
Norepinephrine transporter, sequence (Q9WTR4 whole entry): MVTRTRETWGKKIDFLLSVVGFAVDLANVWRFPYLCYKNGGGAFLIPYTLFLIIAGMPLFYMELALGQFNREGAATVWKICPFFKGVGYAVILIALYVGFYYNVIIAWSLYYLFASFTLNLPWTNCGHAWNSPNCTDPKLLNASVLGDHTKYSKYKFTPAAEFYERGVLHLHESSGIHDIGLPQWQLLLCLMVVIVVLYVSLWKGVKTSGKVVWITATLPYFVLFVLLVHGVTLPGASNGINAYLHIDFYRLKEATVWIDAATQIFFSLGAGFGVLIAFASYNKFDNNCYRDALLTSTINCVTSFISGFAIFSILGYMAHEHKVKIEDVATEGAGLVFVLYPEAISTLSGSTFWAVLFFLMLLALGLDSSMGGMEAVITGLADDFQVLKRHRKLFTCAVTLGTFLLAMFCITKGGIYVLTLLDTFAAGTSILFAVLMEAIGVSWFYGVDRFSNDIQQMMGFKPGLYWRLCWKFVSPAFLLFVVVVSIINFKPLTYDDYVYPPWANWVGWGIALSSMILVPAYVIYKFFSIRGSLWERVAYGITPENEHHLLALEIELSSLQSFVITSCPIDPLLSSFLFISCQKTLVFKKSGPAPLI

Compound | IC50 [1] | IC50 [2] | IC50 [3] | IC50 [4] | IC50 [5] | IC50 [6] | IC50 [7] | IC50 [8] | Activity [9]
CC(C)N1CCC(C(CN2CCN(CCCc3ccccc3-c3ccc(F)cc3)CC2)c2ccc(F)cc2)CC1.Cl (racemic) | 14.5 nM | 729 nM | 3940 nM | > 1000 nM | > 1000 nM | 820 nM | > 10000 nM | > 10000 nM | –
CC(C)N1CCC(C(CN2CCN(CCCc3cc(F)ccc3-c3ccccc3)CC2)c2ccc(F)cc2)CC1 (racemic) | 52.2 nM | – | – | – | – | – | – | – | –
CC(C)N1CCC(C(CN2CCN(CCCc3ccccc3-c3ccccc3)CC2)c2ccc(F)cc2)CC1.Cl (racemic) | 19.7 nM | 1180 nM | 953 nM | > 1000 nM | > 1000 nM | 423 nM | > 10000 nM | > 10000 nM | Active
COc1ccc2ccccc2c1CCCCN1CCN(CC(c2ccc(F)cc2)C2CCN(C(C)C)CC2)CC1.Cl (racemic) | 40.3 nM | 2830 nM | 877 nM | > 1000 nM | > 1000 nM | > 1000 nM | > 10000 nM | > 10000 nM | –

Continued, in another order:

IC50 [1] | IC50 [2] | IC50 [3] | IC50 [4] | IC50 [5] | IC50 [6] | IC50 [7] | IC50 [8] | Compound | Activity [9]
52.7 nM | – | – | – | – | – | – | – | CC(C)N1CCC(C(CN2CCN(CCCc3ccc(F)cc3-c3ccccc3)CC2)c2ccc(F)cc2)CC1 (racemic) | –
18.3 nM | 491 nM | 723 nM | > 1000 nM | > 1000 nM | > 1000 nM | > 10000 nM | > 10000 nM | CC(C)N1CCC(C(CN2CCN(CCCc3c(F)cccc3-c3ccccc3)CC2)c2ccc(F)cc2)CC1.Cl (racemic) | –
19.8 nM | 3940 nM | 3130 nM | > 1000 nM | > 1000 nM | 482 nM | > 10000 nM | > 10000 nM | CC(C)N1CCC(C(CN2CCN(CCCc3cccc(F)c3-c3ccccc3)CC2)c2ccc(F)cc2)CC1.Cl (racemic) | Active
98.6 nM | – | – | – | – | – | – | – | CC(C)N1CCC(C(CN2CCN(CCCc3ccccc3-c3ccccc3F)CC2)c2ccc(F)cc2)CC1 (racemic) | –
333 nM | – | – | – | – | – | – | – | CN1CCC(C(CN2CCN(CCCCc3cccc4ccccc34)CC2)c2ccc(F)cc2)CC1 (racemic) | –
23.4 nM | 543 nM | 2140 nM | > 1000 nM | > 1000 nM | 805 nM | > 10000 nM | > 10000 nM | CC(C)N1CCC(C(CN2CCN(CCCc3ccccc3-c3cccc(F)c3)CC2)c2ccc(F)cc2)CC1.Cl (racemic) | –
